Patent publication US6649648B1, “Therapeutic methods and compositions involving isoflavones” (Novogen Research Pty Limited, priority 1996, dated 2003)

Experiments:
[1] = test system: human LDL; test: Redox Test (LDL lipid oxidation in the presence of vitamin E); type: biochemical; conditions: for Redox Index: human LDL, 20% consumption of endogenous α-tocopherol, BHT 10 μm, lower value = higher activity
Excerpt: 2. Redox Test—This test measures the ability of a compound to prevent LDL lipid oxidation in the presence of vitamin E. The test is a physiological test, vitamin E (α-tocopherol) is present with LDL in the blood stream, and LDL oxidation is believed to be one of the major factors of the development of atherosclerosis. The lower values, the higher the redox activity. […] The test indirectly assesses the ability of a compound to synergise with α-tocopherol in human LDL undergoing mild and chemically controlled oxidation. Oxidation is measured by the accumulation of cholesterylester hydroperoxides at a time point corresponding to 20% consumption of endogenous α-tocopherol. Butylated hydroxytoluene (BHT 10 μm) is used as a positive control. The redox index is measured by the relative extent of oxidation of LDL in the presence of the sample divided by the relative extent of oxidation in the absence of the test compounds. […] Tests were carried out according to Bowry, V. W. et al (1995) J. Bio. Chem. 270 (11) 5756-5763.

[2] = test system: breast cancer; test: Prevention of breast cancer in high risk women, transdermal patch; type: in vivo, human; conditions: same manner and amount, six month trial period
Procedure: This study investigated whether compounds 1 through 19 administered transdermally each day through a skin patch could be used to prevent breast cancer or metastatic cancers following cancer therapy. Patches were prepared that contained a lipophylic carrier cream which is readily absorbed through the skin. The cream comprised a glycerol cold cream which contained glycerin and peanut oil. A selected active compound from any one of compounds of the formulae 1 to 19 is mixed with the lipophylic cream such that each patch comprises 10 mg to 100 mg of active compound. The patch is applied to the skin each day and rapid absorption occurs. After two hours the patch is removed. Alternatively, the patch may be left on for a greater part of each day.

[3] = test system: bowel cancer; test: Patients with advanced or terminal bowel cancer; type: in vivo, human; conditions: intravenous infusion 2 g daily, three weeks, advanced bowel cancer
Procedure: A patient suffering from advanced bowel cancer is treated daily for three weeks with an intravenous infusion of 2 g of the compound of the formula 14 dissolved in sterile saline. […] Progression of the tumour is also arrested over the treatment period.
A second patient suffering from the same condition is treated in the same manner as the above patient with the exception that the 2 g dose of the active compound is administered by way of bolus injection.
In a further series of experiments a group of patients suffering from terminal bowel cancer were treated by bolus daily injections (intravenous or intramuscular) of 2 g of a compound selected from one of the formulae 1 to 19. Over the test period there is shown to be a marked reduction in pain and discomfort. Tumour markers (carcino-embryonic antigen (CEA)) are reduced as evidenced by blood analysis and tumour spread decreased.

[4] = test system: LDL; test: LDL Antioxidation Test; type: biochemical; conditions: for Lag Times / % Increase Over Control: LDL 0.25 mg/ml, 10 μm active compound, 4 μm Cu++; for Lag Times: control 20 min; for antioxidant potency (in words): conclusion from the LDL antioxidation test; for % Increase Over Control: lag time
Procedure: 1. LDL Antioxidation Test—This test measures the ability of a compound to directly scavenge free radicals or to chelate transition metals. […] These tests were carried out according to the procedure of Esterbauer et al Free. Rad. Res. Coms. (1989) 6, 67-75. Briefly, LDL (0.25 mg/ml) is incubated with 10 μm active compound in the presence of 4 μm Cu^++, and LDL was assayed for oxidation by HPLC analysis.

[5] = test system: rat aortic rings; test: Vascular reactivity, rat aortic rings with noradrenaline; type: cell-based; conditions: rat aortic ring, vasoconstrictor noradrenaline
Procedure: Vascular reactivity studies using rat aortic rings is generally regarded as directly predictive of biological effects of candidate compounds in the treatment of the above conditions (Karapapanis, S. et al (1994) Heptology, 20, 6, 1516-1521). The inhibitory effect on restrictor responses in the aortic ring is measured in the presence of the vasoconstrictor noradrenaline according to the procedure of Karapapanis (supra).

[6] = test system: HL60; test: Anti-cancer screening assay, inhibition of cell proliferation; type: cell-based, human
Procedure: (§1) The activity of compounds of the present invention in inhibiting the growth of hormone responsive cancer cells were tested using the well characterised human responsive cancer cell lines K562 and HL60. The anti-cancer screening assay measured inhibition of cell proliferation which results in terminal differential cell death.

[7] = test system: K562; test: as above; type: cell-based, human; conditions: cell line printed K563 at the result
Procedure: as §1

[8] = test system: LDL receptor; test: LDL Receptor Studies, LDL uptake into liver cells; type: cell-based
Excerpt: 4. LDL Receptor Studies—Treatment of atherosclerosis, myocardial infarction, stroke and hypertension. This will establish that compounds which up-regulate the LDL receptor, lead to decreased circulating LDL, and therefore reduces the prospect of atherosclerosis, myocardial infarction, stroke and hypertension. Using an assay according to Stephan Z. F. and Yurachek, E. C. (1993) J. Lipid. Res. 34, 325-330, it is shown that the compounds of the formulae 1 to 19 are effective in increasing LDL uptake into liver cells, this being directly predictive of decrease of circulating LDL in the human blood stream.

Cc1cc(C(C)(C)C)c(O)c(C(C)(C)C)c1 [BHT, Butylated hydroxytoluene, reference compound]
Redox Index [1]: 6.3

C=C(C(=O)c1ccc(O)cc1O)c1ccc(O)cc1 [Compound 11, 2-dehydro-O-demethylangolensin]
evidence of breast cancer or other metastatic cancer [2]: same beneficial results

CC(C(=O)c1c(O)cc(O)cc1O)c1ccc(O)cc1 (stereo not shown) [Compound 14, 6-hydroxy-O-demethylangolensin]
evidence of breast cancer or other metastatic cancer [2]: same beneficial results | cancer markers [3]: reduction | pain and discomfort [3]: significantly reduced | progression of the tumour [3]: arrested

Oc1ccc(C2=Cc3ccc(O)cc3OC2)cc1 [Dehydroequol]
Lag Times [4]: >140 min | antioxidant potency (in words) [4]: extremely potent antixoidants | % Increase Over Control [4]: >600% | synergistic interaction with vitamin E to prevent oxidation ([1]; Redox Test): interacts synergistically with vitamin E to prevent oxidation | Redox Index [1]: 4.5±1.2

O=C1c2ccc(O)cc2OCC1c1ccc(O)cc1 (stereo not shown) [Dihydrodaidzein, dihydrodaidzein]
inhibitory effect on vaso-constrictor responses to noradrenaline [5]: potent inhibitory effects on responses to noradrenaline

O=C1c2c(O)cc(O)cc2OCC1c1ccc(O)cc1 (stereo not shown) [dihydrogenestein, Dihydrogenistein]
inhibitory effect on vaso-constrictor responses to noradrenaline [5]: potent inhibitory effects on responses to noradrenaline

Oc1ccc([C@H]2COc3cc(O)ccc3C2)cc1 [equol]
inhibitory effect on vaso-constrictor responses to noradrenaline [5]: potent inhibitory effects on responses to noradrenaline | inhibition of growth of cell line [6]: potent inhibitors of growth | inhibition of growth of cell line [7]: potent inhibitors of growth | increase of LDL uptake into liver cells [8]: particularly active

Tetrahydrodaidzein
inhibitory effect on vaso-constrictor responses to noradrenaline [5]: potent inhibitory effects on responses to noradrenaline | inhibition of growth of cell line [6]: strong inhibition | Lag Times [4]: >140 min | antioxidant potency (in words) [4]: extremely potent antixoidants | % Increase Over Control [4]: >600%
